This assay concerns the target T1, human TGR5 (Homo sapiens, UniProt Q8TDU6).
T1 construct: expressed in transfected cells; host or cells: HEK293
T1 sequence (Q8TDU6 1-330): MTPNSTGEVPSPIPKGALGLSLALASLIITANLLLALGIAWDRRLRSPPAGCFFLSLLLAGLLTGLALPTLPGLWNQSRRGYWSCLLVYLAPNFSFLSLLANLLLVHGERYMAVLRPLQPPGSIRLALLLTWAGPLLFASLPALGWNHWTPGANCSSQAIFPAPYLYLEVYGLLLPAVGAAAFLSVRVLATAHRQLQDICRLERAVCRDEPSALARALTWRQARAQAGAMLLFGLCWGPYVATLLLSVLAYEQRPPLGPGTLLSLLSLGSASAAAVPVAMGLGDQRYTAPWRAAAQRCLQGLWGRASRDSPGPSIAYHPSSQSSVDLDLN
The assay is described as follows: Cell-based TGR5 assay (cAMP generation, HTRF). The conditions noted are these: HEK293 cells stably transfected with human TGR5; cAMP by HTRF; 30 minutes at 37° C.; read-out: pEC50 Human TGR5 (converted). The procedure, abridged:
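Read-out was HTRF detection of cAMP, converted to concentration via a standard curve and fitted (3-parameter logistic) for pEC50 and maximal response. Agonist stimulation used HEK293 cells stably transfected with human TGR5, incubated 30 min at 37° C in IBMX-containing buffer at 0.05 nM to 10 μM compound.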
A general note: Time-resolved FRET reads energy transfer from a long-lived donor to a nearby acceptor.
Regarding `O=C(O)CCN(C[C@H](O)[C@@H](O)[C@H](O)[C@H](O)CO)C(=O)CCCCc1cc(Cl)c(COC2(c3cnccc3-c3ccccc3OC3CC3)CC2)cc1Cl` [Compound I-183, 3-{5-[2,5-dichloro-4-({1-[4-(2-cyclopropoxyphenyl)pyridin-3-yl]cyclopropoxy}methyl)phenyl]-N-[(2S,3R,4R,5R)-2,3,4,5,6-pentahydroxyhexyl]pentanamido}propanoic acid], the EC50 was less than 100 nM.

Consider `O=C(CCCCc1cc(Cl)c(COC2(c3cnccc3-c3ccccc3OC3CC3)CC2)cc1Cl)N1CCN(C[C@H](O)[C@@H](O)[C@@H](O)[C@H](O)CO)CC1` [Compound I-92, 5-(2,5-dichloro-4-((1-(4-(2-cyclopropoxyphenyl)pyridin-3-yl)cyclopropoxy)methyl)phenyl)-1-(4-((2S,3R,4S,5R)-2,3,4,5,6-pentahydroxyhexyl)piperazin-1-yl)pentan-1-one], for which the EC50 is less than 100 nM.

On to `CCOC(=O)NCCN(CCCSc1ccc(Cl)c(CNC2(c3cnccc3-c3ccccc3OC3CC3)CC2)c1)C(=O)[C@@H](O)[C@@H](O)[C@H](O)[C@@H](O)CO` [Compound I-587, ethyl N-{2-[(2S,3S,4R,5S)-N-[3-({4-chloro-3-[({1-[4-(2-cyclopropoxyphenyl)pyridin-3-yl]cyclopropyl}amino)methyl]phenyl}sulfanyl)propyl]-2,3,4,5,6-pentahydroxyhexanamido]ethyl}carbamate], for which the EC50 was 126 to 1000 nM.

For `O=C(NCC1CCN(S(=O)(=O)c2ccc(Cl)c(COC3(c4cnccc4-c4ccccc4OC4CC4)CC3)c2)C1)NC[C@H](O)[C@@H](O)[C@H](O)[C@H](O)CO` (stereo partly drawn) [Compound I-420, 1-({1-[4-chloro-3-({1-[4-(2-cyclopropoxyphenyl)pyridin-3-yl]cyclopropoxy}methyl)benzenesulfonyl]pyrrolidin-3-yl}methyl)-3-[(2S,3R,4R,5R)-2,3,4,5,6-pentahydroxyhexyl]urea], the EC50 is less than 100 nM.

As to `Cc1ccc(SCCCN(C(=O)[C@@H](O)[C@@H](O)[C@H](O)[C@@H](O)CO)C2CCOCC2)cc1COC1(c2cnccc2-c2ccccc2OC2CC2)CC1` [Compound I-540, (2S,3S,4R,5S)-N-(3-{[3-({1-[4-(2-cyclopropoxyphenyl)pyridin-3-yl]cyclopropoxy}methyl)-4-methylphenyl]sulfanyl}propyl)-2,3,4,5,6-pentahydroxy-N-(oxan-4-yl)hexanamide], the EC50 is 126 to 1000 nM.

For `COCCC(=O)N(CCCCc1cc(Cl)c(COC2(c3cnccc3-c3ccccc3OC3CC3)CC2)cc1Cl)C[C@H](O)[C@@H](O)[C@H](O)[C@H](O)CO` [Compound I-75, N-(4-(2,5-dichloro-4-((1-(4-(2-cyclopropoxyphenyl)pyridin-3-yl)cyclopropoxy)methyl)phenyl)butyl)-3-methoxy-N-((2S,3R,4R,5R)-2,3,4,5,6-pentahydroxyhexyl)propanamide], the EC50 was less than 100 nM.

Consider `COCCCN(C[C@H](O)[C@@H](O)[C@H](O)[C@H](O)CO)C(=O)CCCC(C)c1ccc(Cl)c(CNC2(c3cnccc3-c3ccccc3OC3CC3)CC2)c1` (stereo partly drawn) [Compound I-338, 5-{4-chloro-3-[({11-[4-(2-cyclopropoxyphenyl)pyridin-3-yl]cyclopropyl}amino)methyl]phenyl}-N-(3-methoxypropyl)-N-[(2S,3R,4R,5R)-2,3,4,5,6-pentahydroxyhexyl]hexanamide], for which the EC50 is less than 100 nM.

For the molecule `O=C([C@@H](O)[C@@H](O)[C@H](O)[C@@H](O)CO)N(CCCCO)CCCSc1ccc(Cl)c(CNC2(c3cnccc3-c3ccccc3OC3CC3)CC2)c1` [Compound I-527, (2S,3S,4R,5S)-N-[3-({4-chloro-3-[({1-[4-(2-cyclopropoxyphenyl)pyridin-3-yl]cyclopropyl}amino)methyl]phenyl}sulfanyl)propyl]-2,3,4,5,6-pentahydroxy-N-(4-hydroxybutyl)hexanamide], the EC50 is less than 100 nM.

In the case of `O=C([C@@H](O)[C@@H](O)[C@H](O)[C@@H](O)CO)N(CCCO)CCCCc1cc(Cl)c(COC2(c3cnccc3-c3ccccc3OC3CC3)CC2)cc1Cl` [Compound I-217, (2S,3S,4R,5S)-N-{4-[2,5-dichloro-4-({1-[4-(2-cyclopropoxyphenyl)pyridin-3-yl]cyclopropoxy}methyl)phenyl]butyl}-2,3,4,5,6-pentahydroxy-N-(3-hydroxypropyl)hexanamide], the EC50 was less than 100 nM.

With `O=C(CCCSc1ccc(Cl)c(COC2(c3cnccc3-c3ccccc3OC3CC3)CC2)c1)N(Cc1ccccc1)C[C@H](O)[C@@H](O)[C@H](O)[C@H](O)CO` [Compound I-667, N-benzyl-4-{[4-chloro-3-({1-[4-(2-cyclopropoxyphenyl)pyridin-3-yl]cyclopropoxy}methyl)phenyl]sulfanyl}-N-[(2S,3R,4R,5R)-2,3,4,5,6-pentahydroxyhexyl]butanamide], the EC50 was 126 to 1000 nM.

Regarding `CC(=O)NCCCN(CCCSc1ccc(Cl)c(COC2(c3cnccc3-c3ccccc3OC3CC3)CC2)c1)C(=O)[C@@H](O)[C@@H](O)[C@H](O)[C@@H](O)CO` [Compound I-594, (2S,3S,4R,5S)-N-(3-{[4-chloro-3-({1-[4-(2-cyclopropoxyphenyl)pyridin-3-yl]cyclopropoxy}methyl)phenyl]sulfanyl}propyl)-N-(3-acetamidopropyl)-2,3,4,5,6-pentahydroxyhexanamide], the EC50 is less than 100 nM.

With `CC(C)(CCCc1cc(Cl)c(COC2(c3cnccc3-c3ccccc3OC3CC3)CC2)cc1Cl)C(=O)NC[C@H](O)[C@@H](O)[C@H](O)[C@H](O)CO` [Compound I-144, 5-[2,5-dichloro-4-({1-[4-(2-cyclopropoxyphenyl)pyridin-3-yl]cyclopropoxy}methyl)phenyl]-2,2-dimethyl-N-[(2S,3R,4R,5R)-2,3,4,5,6-pentahydroxyhexyl]pentanamide], the EC50 is 126 to 1000 nM.

As to `O=C1NCCN1CCN(CCCCSc1ccc(Cl)c(COC2(c3cnccc3-c3ccccc3OC3CC3)CC2)c1)C(=O)[C@@H](O)[C@@H](O)[C@H](O)[C@@H](O)CO` [Compound I-517, (2S,3S,4R,5S)-N-(4-{[4-chloro-3-({1-[4-(2-cyclopropoxyphenyl)pyridin-3-yl]cyclopropoxy}methyl)phenyl]sulfanyl}butyl)-2,3,4,5,6-pentahydroxy-N-[2-(2-oxoimidazolidin-1-yl)ethyl]hexanamide], the EC50 was less than 100 nM.

Take `Cc1cc(CNC2(c3cnccc3-c3ccccc3OC3CC3)CC2)c(C)cc1CCCCC(=O)NC[C@H](O)[C@@H](O)[C@H](O)[C@H](O)CO` [Compound I-148, 5-{4-[({1-[4-(2-cyclopropoxyphenyl)pyridin-3-yl]cyclopropyl}amino)methyl]-2,5-dimethylphenyl}-N-[(2S,3R,4R,5R)-2,3,4,5,6-pentahydroxyhexyl]pentanamide]: the EC50 was 126 to 1000 nM.

With `COc1cccc(Cl)c1-c1ccncc1C1(OCc2cc(Cl)ccc2Cl)CC1` [Compound I-765, 4-(2-chloro-6-methoxyphenyl)-3-(1-((2,5-dichlorobenzyl)oxy)cyclopropyl)pyridine], the EC50 is less than 100 nM.

Consider `O=C(O)CCCCc1cc(Cl)c(CNC2(c3cnccc3-c3ccccc3OC3CC3)CC2)cc1Cl` [Compound I-61, 5-[2,5-dichloro-4-[([1-[4-(2-cyclopropoxyphenyl)pyridin-3-yl]cyclopropyl]amino)methyl]phenyl]pentanoic acid], for which the EC50 was 126 to 1000 nM.

Take `CC(CCCCNC(=O)[C@@H](O)[C@@H](O)[C@H](O)[C@@H](O)CO)c1ccc(Cl)c(CNC2(c3cnccc3-c3ccccc3OC3CC3)CC2)c1` (stereo partly drawn) [Compound I-279, (2S,3S,4R,5S)-N-(5-{4-chloro-3-[({1-[4-(2-cyclopropoxyphenyl)pyridin-3-yl]cyclopropyl}amino)methyl]phenyl}hexyl)-2,3,4,5,6-pentahydroxyhexanamide]: the EC50 is less than 100 nM.

In the case of `COCc1ccccc1-c1ccncc1C1(NCc2cc(Cl)ccc2Cl)CC1` [Compound I-12], the EC50 is 126 to 1000 nM.

As for `CC(CCCCN(C)C(=O)NC[C@H](O)[C@@H](O)[C@H](O)[C@H](O)CO)c1ccc(Cl)c(CNC2(c3cnccc3-c3ccccc3OC3CC3)CC2)c1` (stereo partly drawn) [Compound I-269, 1-(5-{4-chloro-3-[({1-[4-(2-cyclopropoxyphenyl)pyridin-3-yl]cyclopropyl}amino)methyl]phenyl}hexyl)-1-methyl-3-[(2S,3R,4R,5R)-2,3,4,5,6-pentahydroxyhexyl]urea], the EC50 was less than 100 nM.

As for `O=C(NCCCCc1ccc(Cl)c(CNC2(c3cnccc3-c3ccccc3OC3CC3)CC2)c1)NC[C@H](O)[C@@H](O)[C@H](O)[C@H](O)CO` [Compound I-64, 1-(4-[4-chloro-3-[([1-[4-(2-cyclopropoxyphenyl)pyridin-3-yl]cyclopropyl]amino)methyl]phenyl]butyl)-3-[(2S,3R,4R,5R)-2,3,4,5,6-pentahydroxyhexyl]urea], the EC50 is less than 100 nM.

For the molecule `O=C([C@@H](O)[C@@H](O)[C@H](O)[C@@H](O)CO)N(CCCCSc1ccc(Cl)c(COC2(c3cnccc3-c3ccccc3OC3CC3)CC2)c1)C1CCOCC1` [Compound I-514, (2S,3S,4R,5S)-N-(4-{[4-chloro-3-({1-[4-(2-cyclopropoxyphenyl)pyridin-3-yl]cyclopropoxy}methyl)phenyl]sulfanyl}butyl)-2,3,4,5,6-pentahydroxy-N-(oxan-4-yl)hexanamide], the EC50 is less than 100 nM.

Source of the values: US12084472B2 (Ardelyx, Inc., priority 2015, dated 2024).
